{
  "source": "paper PMC8355244",
  "about": "“A fragment-based approach identifies an allosteric pocket that impacts malate dehydrogenase activity” (Communications Biology, 2021)",
  "biological_target": "T1, PfMDH (Plasmodium falciparum, UniProt Q6VVP7)",
  "T1 construct": "The full-length WT PfMDH gene was cloned into pETM-13; made in house; host or cells: E. coli Rosetta 2 (DE3) pLysS",
  "T1 sequence (Q6VVP7 entry or part of it)": "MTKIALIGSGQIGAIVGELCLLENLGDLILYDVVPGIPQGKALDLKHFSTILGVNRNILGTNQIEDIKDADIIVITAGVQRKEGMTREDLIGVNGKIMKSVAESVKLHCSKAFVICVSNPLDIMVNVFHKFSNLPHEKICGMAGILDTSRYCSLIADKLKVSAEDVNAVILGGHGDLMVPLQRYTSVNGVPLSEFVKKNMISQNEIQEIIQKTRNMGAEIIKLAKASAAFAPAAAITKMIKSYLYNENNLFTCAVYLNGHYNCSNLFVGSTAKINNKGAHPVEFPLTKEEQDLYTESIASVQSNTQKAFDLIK",
  "assay": "Thermal shift assay (TSA)",
  "type": "binding",
  "conditions": "for TSA melting curve raw signal: triplicate columns; for TSA melting curve raw fluorescence signal: three replicate columns",
  "experimental": "The TSA experiment was conducted in a BioRad CSX 96 (Biorad). Each reaction consisted of 1 mM of compound (100 mM stock in 100% (v/v) DMSO) and 10 μM PfMDH in 100 mM Na–phosphate buffer pH 7.4, 400 mM NaCl, and 10× Sypro Orange (Invitrogen) for a total volume of 100 μl. Control experiments were performed with 1% (v/v) DMSO. Inflection points were determined using BioRad CFX96™ control software. Generally, a temperature increase of over 1 °C is interpreted as a result of the stabilization of the protein-ligand interaction. On the contrary, a negative shift is considered a destabilization caused by the fragment.",
  "note": "“And” between values parts separate entries of the source, which are not always exact repeats. Equal values may be shown once.",
  "data": [
    {"smiles": "Cc1ccc(-c2csc(N)n2)cc1C", "note": "[compound 5a]", "values": [
      {"measurement": "ΔTm at 1000 µM", "setting": "1 mM compound vs DMSO control", "value": -4, "unit": "°C"},
      {"measurement": "Tm", "setting": "1 mM compound, 10 μM PfMDH, DMSO control Tm 58", "value": "54.0 ± 0.2", "unit": "°C"},
      {"measurement": "TSA melting curve raw signal", "setting": "Temperature 25", "value": "4361,22691625664 and 4136,47480077282"},
      {"measurement": "TSA melting curve raw signal", "setting": "Temperature 28.5", "value": "4004,87351225735 and 4183,98281996697 and 3977,18518163549"},
      {"measurement": "TSA melting curve raw signal", "setting": "Temperature 29", "value": "3986,17580138025 and 4159,213140841 and 3954,9246822172"},
      {"measurement": "TSA melting curve raw signal", "setting": "Temperature 29.5", "value": "3965,52273011401 and 4133,77316232738 and 3931,4868089647"},
      {"measurement": "TSA melting curve raw signal", "setting": "Temperature 30", "value": "3942,69196918976 and 4107,074098257 and 3906,46894255822"},
      {"measurement": "TSA melting curve raw signal", "setting": "Temperature 30.5", "value": "3918,20361111847 and 4079,7505229192 and 3880,66961233132"},
      {"measurement": "TSA melting curve raw signal", "setting": "Temperature 31", "value": "3892,85755253156 and 4052,78803951145 and 3854,85757088369"},
      {"measurement": "TSA melting curve raw signal", "setting": "Temperature 31.5", "value": "3868,35453137919 and 4026,78761104422 and 3830,51973110108"},
      {"measurement": "TSA melting curve raw signal", "setting": "Temperature 32", "value": "3846,14582452398 and 4002,89304325356 and 3808,96381740298"},
      {"measurement": "TSA melting curve raw signal", "setting": "Temperature 32.5", "value": "3827,35535230328 and 3981,88234223881 and 3791,26035282333"},
      {"measurement": "TSA melting curve raw signal", "setting": "Temperature 33", "value": "3812,58320085949 and 3964,3028642829 and 3777,54515038218"},
      {"measurement": "TSA melting curve raw signal", "setting": "Temperature 33.5", "value": "3801,69756150235 and 3949,2862317403 and 3767,92816787175"},
      {"measurement": "TSA melting curve raw signal", "setting": "Temperature 34", "value": "3794,14835836044 and 3937,14669832695 and 3761,78012801461"},
      {"measurement": "TSA melting curve raw signal", "setting": "Temperature 34.5", "value": "3789,41768425867 and 3927,49825494442 and 3758,75347546959"},
      {"measurement": "TSA melting curve raw signal", "setting": "Temperature 35", "value": "3787,20107392869 and 3920,20996880984 and 3758,62073564665"},
      {"measurement": "TSA melting curve raw signal", "setting": "Temperature 35.5", "value": "3787,42445071158 and 3914,62343444524 and 3761,24267883563"},
      {"measurement": "TSA melting curve raw signal", "setting": "Temperature 36", "value": "3789,87806432584 and 3911,1710367624 and 3766,28559252083"},
      {"measurement": "TSA melting curve raw signal", "setting": "Temperature 36.5", "value": "3794,85229304264 and 3909,49204056619 and 3773,84282790235"},
      {"measurement": "TSA melting curve raw signal", "setting": "Temperature 37", "value": "3802,25424487634 and 3909,25385384206 and 3783,72084315967"},
      {"measurement": "TSA melting curve raw signal", "setting": "Temperature 37.5", "value": "3812,04395610452 and 3910,368484837 and 3795,67572672777"},
      {"measurement": "TSA melting curve raw signal", "setting": "Temperature 38", "value": "3823,44040340727 and 3913,02621291175 and 3809,89581343172"},
      {"measurement": "TSA melting curve raw signal", "setting": "Temperature 38.5", "value": "3837,03387753428 and 3917,20362777738 and 3826,4956570889"},
      {"measurement": "TSA melting curve raw signal", "setting": "Temperature 39", "value": "3852,32039847376 and 3922,75702566821 and 3845,46925064995"},
      {"measurement": "TSA melting curve raw signal", "setting": "Temperature 39.5", "value": "3869,53236426586 and 3930,26334549594 and 3867,32940969988"},
      {"measurement": "TSA melting curve raw signal", "setting": "Temperature 40", "value": "3888,57436192082 and 3939,63549689652 and 3891,99828571263"},
      {"measurement": "TSA melting curve raw signal", "setting": "Temperature 40.5", "value": "3909,9422248531 and 3951,08452102982 and 3919,26474950283"},
      {"measurement": "TSA melting curve raw signal", "setting": "Temperature 41", "value": "3933,37089433234 and 3964,6560667334 and 3949,14976176316"},
      {"measurement": "TSA melting curve raw signal", "setting": "Temperature 41.5", "value": "3959,61189650686 and 3980,53295877896 and 3981,80921424824"},
      {"measurement": "TSA melting curve raw signal", "setting": "Temperature 42", "value": "3988,71833711846 and 3998,73387424263 and 4016,77538143681"},
      {"measurement": "TSA melting curve raw signal", "setting": "Temperature 42.5", "value": "4021,21607007206 and 4019,84430210471 and 4054,60967755587"},
      {"measurement": "TSA melting curve raw signal", "setting": "Temperature 43", "value": "4057,66089779623 and 4044,0111947974 and 4095,39361771176"},
      {"measurement": "TSA melting curve raw signal", "setting": "Temperature 43.5", "value": "4098,50799079596 and 4071,35680793258 and 4139,49703067488"},
      {"measurement": "TSA melting curve raw signal", "setting": "Temperature 44", "value": "4143,7029279742 and 4102,93490558282 and 4187,23267299696"},
      {"measurement": "TSA melting curve raw signal", "setting": "Temperature 44.5", "value": "4193,76415817757 and 4139,12758979339"},
      {"measurement": "TSA melting curve raw fluorescence signal", "setting": "Temperature 73.5", "value": "6299,79889324093 and 6231,78067625527 and 6109,60097267495"},
      {"measurement": "TSA melting curve raw fluorescence signal", "setting": "Temperature 74", "value": "6263,77685489112 and 6199,60301810331 and 6079,58574419186"},
      {"measurement": "TSA melting curve raw fluorescence signal", "setting": "Temperature 74.5", "value": "6227,81230039343 and 6168,07294306546 and 6050,3648537714"}
    ]}
  ]
}
